According to ChEMBL document CHEMBL4385656, “Ciprofloxacin-1,2,3-triazole-isatin hybrids tethered via amide: Design, synthesis, and in vitro anti-mycobacterial activity evaluation” (Bioorg Med Chem Lett, 2019):
In brackets after ≈: the same amount, converted by molar mass.

What was measured:
[1] = Selectivity index, ratio of CC50 for cytotoxicity in African green monkey Vero cells to MIC for anti-mycobacterial activity against Mycobacterium tuberculosis H37Rv; type: toxicity, cell-based; conditions: read-out: Selectivity Index
[2] = Cytotoxicity in African green monkey Vero cells; type: cell-based; conditions: chlorocebus sabaeus
[3] = test system: Mycobacterium tuberculosis; experiment: Potency index, ratio of MIC for ciprofloxacin to MIC for test compound for anti-mycobacterial activity against Mycobacterium tuberculosis H37Rv; type: functional
[4] = test system: Mycobacterium tuberculosis; experiment: Anti-mycobacterial activity against Mycobacterium tuberculosis H37Rv; type: functional

SMILES	selectivity ratio [1]	CC50 [2] [µg/mL]	Ratio [3]	MIC [4] [µg/mL]
O=C1C(=O)N(Cc2cn(CC(=O)N3CCN(c4cc5c(cc4F)c(=O)c(C(=O)O)cn5C4CC4)CC3)nn2)c2ccccc21	32	16 (≈ 26.7 µM)	2	0.5 (≈ 0.834 µM)
CO/N=C1/C(=O)N(Cc2cn(CC(=O)N3CCN(c4cc5c(cc4F)c(=O)c(C(=O)O)cn5C4CC4)CC3)nn2)c2c(F)cccc21	1	32 (≈ 49.5 µM)		32 (≈ 49.5 µM)
CCO/N=C1/C(=O)N(Cc2cn(CC(=O)N3CCN(c4cc5c(cc4F)c(=O)c(C(=O)O)cn5C4CC4)CC3)nn2)c2ccc(C)cc21	1	32 (≈ 48.7 µM)		32 (≈ 48.7 µM)
O=C1C(=O)N(Cc2cn(CC(=O)N3CCN(c4cc5c(cc4F)c(=O)c(C(=O)O)cn5C4CC4)CC3)nn2)c2c(F)cccc21	2	8 (≈ 13 µM)		4 (≈ 6.48 µM)
CCO/N=C1/C(=O)N(Cc2cn(CC(=O)N3CCN(c4cc5c(cc4F)c(=O)c(C(=O)O)cn5C4CC4)CC3)nn2)c2ccc(F)cc21	0.5	8 (≈ 12.1 µM)		16 (≈ 24.2 µM)
CCO/N=C1/C(=O)N(Cc2cn(CC(=O)N3CCN(c4cc5c(cc4F)c(=O)c(C(=O)O)cn5C4CC4)CC3)nn2)c2ccccc21	2	64 (≈ 99.6 µM)		32 (≈ 49.8 µM)
CO/N=C1/C(=O)N(Cc2cn(CC(=O)N3CCN(c4cc5c(cc4F)c(=O)c(C(=O)O)cn5C4CC4)CC3)nn2)c2ccc(F)cc21	8	64 (≈ 99 µM)		8 (≈ 12.4 µM)
CO/N=C1/C(=O)N(Cc2cn(CC(=O)N3CCN(c4cc5c(cc4F)c(=O)c(C(=O)O)cn5C4CC4)CC3)nn2)c2ccccc21	16	128 (≈ 204 µM)		8 (≈ 12.7 µM)
O=C1C(=O)N(Cc2cn(CC(=O)N3CCN(c4cc5c(cc4F)c(=O)c(C(=O)O)cn5C4CC4)CC3)nn2)c2ccc(F)cc21	32	32 (≈ 51.8 µM)		1 (≈ 1.62 µM)
CO/N=C1/C(=O)N(Cc2cn(CC(=O)N3CCN(c4cc5c(cc4F)c(=O)c(C(=O)O)cn5C4CC4)CC3)nn2)c2ccc(C)cc21	0.25	8 (≈ 12.4 µM)		32 (≈ 49.8 µM)
Cc1ccc2c(c1)C(=O)C(=O)N2Cc1cn(CC(=O)N2CCN(c3cc4c(cc3F)c(=O)c(C(=O)O)cn4C3CC3)CC2)nn1	16	16 (≈ 26.1 µM)		1 (≈ 1.63 µM)
CCO/N=C1/C(=O)N(Cc2cn(CC(=O)N3CCN(c4cc5c(cc4F)c(=O)c(C(=O)O)cn5C4CC4)CC3)nn2)c2c(F)cccc21	0.5	16 (≈ 24.2 µM)		32 (≈ 48.4 µM)
O=C(O)c1cn(C2CC2)c2cc(N3CCNCC3)c(F)cc2c1=O [CIPROFLOXACIN]	128			1 (≈ 3.02 µM)
NNC(=O)c1ccncc1 [ISONIAZID]	512	64 (≈ 467 µM)		0.12 (≈ 0.875 µM)
CO[C@H]1/C=C/O[C@@]2(C)Oc3c(C)c(O)c4c(O)c(c(/C=N/N5CCN(C)CC5)c(O)c4c3C2=O)NC(=O)/C(C)=C\C=C\[C@H](C)[C@H](O)[C@@H](C)[C@@H](O)[C@@H](C)[C@H](OC(C)=O)[C@@H]1C [RIFAMPIN]	512	128 (≈ 156 µM)		0.25 (≈ 0.304 µM)
